# Patent EP1832576A1, “4-Biarylyl-1-phenolyzetidin-2-ones” (Microbia Inc., priority 2003, dated 2005)
# Test system: cholesterol absorption from the intestine
# Assay: In Vivo Assay of Hypolipidemic Agents using the Rat Cholesterol Absorption Model
# Design: species or system Female Sprague-Dawley rats
# Conditions: po, Table 1, footnote 2, perorally, 3 mg/kg, 3H levels in serum three hours after 3H-cholesterol
# Procedure: In Vivo Assay of Hypolipidemic Agents using the Rat Cholesterol Absorption Model. This model is based on models described by Burnett et al (2002), Bioorg. Med. Chem. Lett. 2002 Feb 11;12(3):315-8 and J. Lipid Res. 1999 Oct;40(10):1747-57. Female Sprague-Dawley rats weighing 150-250g are separated into […] and fasted overnight. The animals (4-6/group) are dosed perorally with 300µL test compounds in olive oil or suitable vehicle. Thirty minutes later, 3-5 microCuries ^3H-cholesterol per rat are delivered perorally in 300 µL olive oil. After three hours, 200 µL serum is collected, vortexed with scintillation fluid, and measured for radioactivity in a scintillation counter. Percent inhibition is defined as 100*(1-Ctest/Cctrl), where Ctest and Cctrl refer to ^3H levels in serum for the test compound and for the vehicle only control, respectively. Percent inhibition values are reported for a fixed dose. The ED50 is the dose at which the half-maximal effect on serum ^3H levels is observed for a given test compound.
# Representative compounds of the invention were tested in the Rat Cholesterol Absorption model above.
row,SMILES,inhibition at 3 mg/kg
1,"CS(=O)(=O)c1cccc(-c2ccc([C@@H]3[C@@H](CC[C@H](O)c4ccc(F)cc4)C(=O)N3c3ccc(F)cc3)cc2)c1 [Example 10, (3R,4S)-1-(4-fluorophenyl)-3-[(3S)-3-(4-fluorophenyl)-3-hydroxypropyl]-4-[3'-(methylsulfonyl)biphenyl-4-yl]azetidin-2-one]",54%

# Same assay, conditions: po, Table 1, perorally, 1 mg/kg, 3H levels in serum three hours after 3H-cholesterol, versus vehicle only control
row,SMILES,inhibition at 1 mg/kg
1,"COc1ccc(-c2ccc([C@@H]3[C@@H](CC[C@H](O)c4ccc(F)cc4)C(=O)N3c3ccc(F)cc3)cc2)c(OC)c1 [Example 97, (3R,4S)-4-(2',4'-dimethoxybiphenyl-4-yl)-1-(4-fluorophenyl)-3-[(3S)-3-(4-fluorophenyl)-3-hydroxypropyl]azetidin-2-one]",40%
2,"COc1cccc(-c2ccc([C@@H]3[C@@H](CC[C@H](O)c4ccc(F)cc4)C(=O)N3c3ccc(F)cc3)cc2)c1 [Example 12, (3R,4S)-1-(4-fluorophenyl)-3-[(3S)-3-(4-fluorophenyl)-3-hydroxypropyl]-4-(3'-methoxybiphenyl-4-yl)azetidin-2-one]",70%
3,"CCOc1cccc(-c2ccc([C@@H]3[C@@H](CC[C@H](O)c4ccc(F)cc4)C(=O)N3c3ccc(F)cc3)cc2)c1 [Example 100, (3R,4S)-4-(3'-ethoxybiphenyl-4-yl)-1-(4-fluorophenyl)-3-[(3S)-3-(4-fluorophenyl)-3-hydroxypropyl]azetidin-2-one]",54%
4,"O=C1[C@H](CC[C@H](O)c2ccc(F)cc2)[C@@H](c2ccc(-c3cccc(O)c3)cc2)N1c1ccc(F)cc1 [Example 4, (3R,4S)-1-(4-Fluorophenyl)-3-[(3S)-3-(4-fluorophenyl)-3-hydroxypropyl]-4-(3'-hydroxybiphenyl-4-yl)azetidin-2-one]",72%
5,"O=C1[C@H](CC[C@H](O)c2ccc(F)cc2)[C@@H](c2ccc(-c3cc(O)cc(F)c3)cc2)N1c1ccc(F)cc1 [Example 112, (3R,4S)-4-(3'-fluoro-5'-hydroxybiphenyl-4-yl)-1-(4-fluorophenyl)-3-[(3S)-3-(4-fluorophenyl)-3-hydroxypropyl]azetidin-2-one]",75%
6,"O=C(O)[C@@H]1O[C@H](Oc2cccc(-c3ccc([C@@H]4[C@@H](CC[C@H](O)c5ccc(F)cc5)C(=O)N4c4ccc(F)cc4)cc3)c2)[C@@H](O)[C@H](O)[C@H]1O [Example 20, 4'-{(2S,3R)-1-(4-fluorophenyl)-3-[(3S)-3-(4-fluorophenyl)-3-hydroxypropyl]-4-oxoazetidin-2-yl}biphenyl-3-yl β-L-glucopyranosiduronic acid]",59%
7,"O=C1[C@H](CC[C@H](O)c2ccc(F)cc2)[C@@H](c2ccc(-c3cccc(C(F)(F)F)c3)cc2)N1c1ccc(F)cc1 [Example 92, (3R,4S)-1-(4-fluorophenyl)-3-[(3S)-3-(4-fluorophenyl)-3-hydroxypropyl]-4-[3'-(trifluoromethyl)biphenyl-4-yl]azetidin-2-one]",17%
8,"O=C1[C@H](CC[C@H](O)c2ccc(F)cc2)[C@@H](c2ccc(-c3ccccc3O)cc2)N1c1ccc(F)cc1 [Example 7, (3R,4S)-1-(4-fluorophenyl)-3-[(3S)-3-(4-fluorophenyl)-3-hydroxypropyl]-4-(2'-hydroxybiphenyl-4-yl)azetidin-2-one]",30%
9,"O=C1[C@H](CC[C@H](O)c2ccc(F)cc2)[C@@H](c2ccc(-c3ccc(O)cc3)cc2)N1c1ccc(F)cc1 [Example 2, (3R,4S)-1-(4-fluorophenyl)-3-[(3S)-3-(4-fluorophenyl)-3-hydroxypropyl]-4-(4'-hydroxybiphenyl-4-yl)azetidin-2-one]",54%
10,"Nc1cccc(-c2ccc([C@@H]3[C@@H](CC[C@H](O)c4ccc(F)cc4)C(=O)N3c3ccc(F)cc3)cc2)c1 [Example 86, (3R,4S)-4-(3'-aminabiphenyl-4-yl)-1-(4-fluorophenyl)-3-[(3S)-3-(4-fluorophenyl)-3-hydroxypropyl]azetidin-2-one]",35%
11,"O=C1[C@H](CC[C@H](O)c2ccc(F)cc2)[C@@H](c2ccc(-c3cccc(CO)c3)cc2)N1c1ccc(F)cc1 [Example 16, (3R,4S)-1-(4-Fluorophenyl)-3-[(3S)-3-(4-fluorophenyl)-3-hydroxypropyl]-4-(3'-(hydroxymethyl)biphenyl-4-yl)azetidin-2-one]",72%
12,"COc1cc(-c2ccc([C@@H]3[C@@H](CC[C@H](O)c4ccc(F)cc4)C(=O)N3c3ccc(F)cc3)cc2)cc(OC)c1OC [Example 9, (3R,4S)-1-(4-fluorophenyl)-3-[(3S)-3-(4-fluorophenyl)-3-hydroxypropyl]-4-(3',4',5'-trimethoxybiphenyl-4-yl)azetidin-2-one]",40%
13,"O=C1[C@H](CC[C@H](O)c2ccc(F)cc2)[C@@H](c2ccc(-c3cccc([C@@H]4O[C@@H](CO)[C@H](O)[C@@H](O)[C@@H]4O)c3)cc2)N1c1ccc(F)cc1 [Example 113, (1S)-1,5-anhydro-1-(4'-{(2S,3R)-1-(4-fluorophenyl)-3-[(3S)-3-(4-fluorophenyl)-3-hydroxypropyl]-4-oxoazetidin-2-yl}biphenyl-3-yl)-L-glucitol]",67%
14,"O=C1[C@H](CC[C@H](O)c2ccc(F)cc2)[C@@H](c2ccc(-c3cccc(P(=O)(O)O)c3)cc2)N1c1ccccc1 [Example 56, (4'-{(2S,3R)-3-[(3S)-3-(4-Fluorophenyl)-3-hydroxypropyl]-4-oxo-1-phenylazetidin-2-yl}biphenyl-3-yl)phosphonic acid]",59%
15,"CC(C)Oc1cccc(-c2ccc([C@@H]3[C@@H](CC[C@H](O)c4ccc(F)cc4)C(=O)N3c3ccc(F)cc3)cc2)c1 [Example 105, (3R,4S)-1-(4-fluorophenyl)-3-[(3S)-3-(4-fluorophenyl)-3-hydroxypropyl]-4-(3'-isopropoxybiphenyl-4-yl)azetidin-2-one]",15%
16,"O=C(O)c1cc(-c2ccc([C@@H]3[C@@H](CC[C@H](O)c4ccc(F)cc4)C(=O)N3c3ccc(F)cc3)cc2)ccc1O [Example 106, 4'-{(2S,3R)-1-(4-fluorophenyl)-3-[(3S)-3-(4-fluorophenyl)-3-hydroxypropyl]-4-oxoazetidin-2-yl}-4-hydroxybiphenyl-3-carboxylic acid]",66%
17,"Cc1cc(-c2ccc([C@@H]3[C@@H](CC[C@H](O)c4ccc(F)cc4)C(=O)N3c3ccc(F)cc3)cc2)ccc1F [Example 94, (3R,4S)-4-(4'-fluoro-3'-methylbiphenyl-4-yl)-1-(4-fluorophenyl)-3-[(3S)-3-(4-fluorophenyl)-3-hydroxypropyl]azetidin-2-one]",30%
18,"CS(=O)(=O)c1ccc(-c2ccc([C@@H]3[C@@H](CC[C@H](O)c4ccc(F)cc4)C(=O)N3c3ccc(F)cc3)cc2)cc1 [Example 8, (3R,4S)-1-(4-fluorophenyl)-3-[(3S)-3-(4-fluorophenyl)-3-hydroxypropyl]-4-[4'-(methylsulfonyl)biphenyl-4-yl]azetidin-2-one]",53%

# Same assay, conditions: po, Table 2, footnote mark 3 (defined only under Table 1: 5 mg/kg), perorally
row,SMILES,inhibition at 5 mg/kg
1,"O=C1[C@H](CC[C@H](O)c2ccc(F)cc2)[C@@H](c2ccc(-c3cccc(P(=O)(O)O)c3)cc2O)N1c1ccccc1 [Example 61, (4'-{(2S,3R)-3-[(3S)-3-(4-Fluorophenyl)-3-hydroxypropyl]-4-oxo-1-phenylazetidin-2-yl}-3'-hydroxybiphenyl-3-yl)phosphonic acid]",58%

# Same assay, conditions: po, Table 2, perorally, 1 mg/kg, 3H levels in serum three hours after 3H-cholesterol, versus vehicle only control
row,SMILES,inhibition at 1 mg/kg
1,"O=C1[C@H](CC[C@H](O)c2ccc(F)cc2)[C@@H](c2ccc(-c3cccc([C@@H](O)[C@H]4OC(O)[C@H](O)[C@@H](O)[C@@H]4O)c3)cc2O)N1c1ccccc1 (stereo partly drawn) [Example 74, (6R)-6-C-(4'-{(2S,3R)-3-[(3S)-3-(4-Fluorophenyl)-3-hydroxypropyl]-4-oxo-1-phenylazetidin-2-yl}-3'-hydroxybiphenyl-3-yl)-D-glucopyranose]",67%
2,"O=C1[C@H](CC[C@H](O)c2ccc(F)cc2)[C@@H](c2ccc(-c3ccc(O)cc3)cc2O)N1c1ccccc1 [Example 125, (3R,4S)-4-(3,4'-dihydroxybiphenyl-4-yl)-3-[(3S)-3-(4-fluorophenyl)-3-hydroxypropyl]-1-phenylazetidin-2-one]",64%
3,"O=C1[C@H](CC[C@H](O)c2ccc(F)cc2)[C@@H](c2ccc(-c3cccc(O)c3)cc2)N1c1ccc(-c2ccccc2)cc1 [Example 124, (3R,4S)-1-biphenyl-4-yl-3-[(3S)-3-(4-fluorophenyl)-3-hydroxypropyl]-4-(3'-hydroxybiphenyl-4-yl)azetidin-2-one]",48%
4,"O=C1[C@H](CC[C@H](O)c2ccc(F)cc2)[C@@H](c2ccc(-c3ccc(P(=O)(O)O)cc3)cc2O)N1c1ccccc1 [Example 127, (4'-{(2S,3R)-3-[(3S)-3-(4-Fluorophenyl)-3-hydroxypropyl]-4-oxo-1-phenylazetidin-2-yl}-3'-hydroxybiphenyl-4-yl)phosphonic acid]",58%
5,"O=C1[C@H](CCC(O)c2ccc(F)cc2)[C@@H](c2ccc(-c3cccc(S(=O)(=O)O)c3)cc2O)N1c1ccccc1 (stereo partly drawn) [Example 53, Sodium 4'-{(2S,3R)-3-[(3S/R)-3-(4-fluorophenyl)-3-hydroxypropyl]-4-oxo-1-phenylazetidin-2-yl}-3'-hydroxybiphenyl-3-sulfonate]",78%
